Values of other authors in paper PMC6968775, “Assessment of contribution of BCRP to intestinal absorption of various drugs using portal‐systemic blood concentration difference model in mice” (Pharmacology Research & Perspectives, 2020).

Details: human; cited from earlier work

O=C(O)c1cn(C2CC2)c2cc(N3CCNCC3)c(F)cc2c1=O [ciprofloxacin, Ciprofloxacin]
oral BA in human: about 70%
